Data: patent publication US9765075B2, “Substituted bridged urea analogs as sirtuin modulators” (GLAXOSMITHKLINE LLC, priority 2013, dated 2017)

Target: T1, SIRT1 (Homo sapiens, UniProt Q96EB6)
T1 sequence (Q96EB6 1-747): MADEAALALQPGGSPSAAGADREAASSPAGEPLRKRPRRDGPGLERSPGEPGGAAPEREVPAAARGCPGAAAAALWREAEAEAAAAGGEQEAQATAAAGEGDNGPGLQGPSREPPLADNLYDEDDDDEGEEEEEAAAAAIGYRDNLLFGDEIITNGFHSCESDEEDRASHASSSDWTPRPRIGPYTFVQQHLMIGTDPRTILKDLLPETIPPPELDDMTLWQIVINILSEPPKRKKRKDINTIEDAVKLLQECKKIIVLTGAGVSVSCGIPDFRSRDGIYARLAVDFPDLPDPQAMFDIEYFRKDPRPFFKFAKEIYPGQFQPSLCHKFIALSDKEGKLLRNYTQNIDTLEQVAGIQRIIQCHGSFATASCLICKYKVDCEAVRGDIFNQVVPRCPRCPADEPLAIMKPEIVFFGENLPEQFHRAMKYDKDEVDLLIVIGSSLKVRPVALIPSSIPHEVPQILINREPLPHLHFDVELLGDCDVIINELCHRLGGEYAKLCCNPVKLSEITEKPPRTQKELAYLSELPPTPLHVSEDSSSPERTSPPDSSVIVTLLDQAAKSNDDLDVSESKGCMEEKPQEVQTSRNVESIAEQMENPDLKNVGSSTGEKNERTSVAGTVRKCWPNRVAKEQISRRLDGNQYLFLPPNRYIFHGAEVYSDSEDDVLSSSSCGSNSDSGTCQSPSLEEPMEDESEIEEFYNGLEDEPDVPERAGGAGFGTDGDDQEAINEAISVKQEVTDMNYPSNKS
Assay: Trp mass spectrometry assay (SIRT1 activation)
Format: biochemical
Settings: Trp peptide substrate; for Tryp AVG EC1.5 (μM): concentration of test compound that results in 150% activation of SIRT1; for Emax: percent maximum fold activation of SIRT1, read-out: Tryp % Fold Act
Outline: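 Activation is expressed as EC1.5, the concentration raising activity 50% above DMSO control, and as maximum percent of control. Mass-spec readout was OAADPR or deacetylated Trp peptide after a formic-acid-quenched 25-min, 25 °C reaction: 10 nM bacterially expressed His-SIRT1, 0.5 μM acetyl-p53-derived peptide, 120 μM NAD+, pH 7.5 HEPES with […].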

| Tryp AVG EC1.5 (μM) | Emax | Structure (SMILES) |
| --- | --- | --- |
| A (EC1.5<1 μM) | ≥ 150% | Cc1cc(-c2ccc3c(n2)N(C(=O)Nc2cncc(C)n2)[C@H]2CCN3C2)ccn1 [Example 503] |
| A (EC1.5<1 μM) | ≥ 150% | Cc1cncc(-c2ccc3c(n2)N(C(=O)Nc2ccccn2)[C@H]2CCCN3C2)c1 [Example 504] |
| C (EC1.5>25 μM) | < 150% | Cc1ccncc1-c1ccc2c(n1)N(C(=O)Nc1ccccn1)[C@H]1CCCN2C1 [Example 505] |
| A (EC1.5<1 μM) | ≥ 150% | Cc1ccc(-c2ccc3c(n2)N(C(=O)Nc2nc(C)c(C)s2)[C@H]2CCCN3C2)cn1 [Example 506] |
| A (EC1.5<1 μM) | ≥ 150% | Cc1cncc(-c2ccc3c(n2)N(C(=O)Nc2nc(C)c(C)s2)[C@H]2CCCN3C2)c1 [Example 507] |
| C (EC1.5>25 μM) | ≥ 150% | Cc1ccncc1-c1ccc2c(n1)N(C(=O)Nc1nc(C)c(C)s1)[C@H]1CCCN2C1 [Example 508] |
| A (EC1.5<1 μM) | ≥ 150% | Cc1cncc(-c2ccc3c(n2)N(C(=O)Nc2cncc(F)c2)[C@H]2CCCN3C2)c1 [Example 509] |
| B (EC1.5 1-25 μM) | ≥ 150% | Cc1ccncc1-c1ccc2c(n1)N(C(=O)Nc1cncc(F)c1)[C@H]1CCCN2C1 [Example 510] |
| C (EC1.5>25 μM) | < 150% | COc1cc(NC(=O)N2c3nc(-c4cnccc4C)ccc3N3CCC[C@H]2C3)ncn1 [Example 511] |
| B (EC1.5 1-25 μM) | ≥ 150% | Cc1cncc(-c2ccc3c(n2)N(C(=O)Nc2cnccn2)[C@H]2CCCN3C2)c1 [Example 512] |
| C (EC1.5>25 μM) | ≥ 150% | Cc1ccncc1-c1ccc2c(n1)N(C(=O)Nc1cnccn1)[C@H]1CCCN2C1 [Example 513] |
| B (EC1.5 1-25 μM) | ≥ 150% | Cc1ccc(-c2ccc3c(n2)N(C(=O)Nc2cccnc2)[C@H]2CCCN3C2)cn1 [Example 514] |
| A (EC1.5<1 μM) | ≥ 150% | Cc1cncc(-c2ccc3c(n2)N(C(=O)Nc2cccnc2)[C@H]2CCCN3C2)c1 [Example 515] |
| B (EC1.5 1-25 μM) | ≥ 150% | Cc1ccncc1-c1ccc2c(n1)N(C(=O)Nc1cccnc1)[C@H]1CCCN2C1 [Example 516] |
| A (EC1.5<1 μM) | ≥ 150% | Cc1cncc(-c2ccc3c(n2)N(C(=O)Nc2ccncn2)[C@H]2CCCN3C2)c1 [Example 517] |
| C (EC1.5>25 μM) | < 150% | Cc1ccncc1-c1ccc2c(n1)N(C(=O)Nc1ccncn1)[C@H]1CCCN2C1 [Example 518] |
| A (EC1.5<1 μM) | ≥ 150% | Cc1cncc(-c2ccc3c(n2)N(C(=O)Nc2cccnn2)[C@H]2CCCN3C2)c1 [Example 519] |
| C (EC1.5>25 μM) | ≥ 150% | Cc1ccncc1-c1ccc2c(n1)N(C(=O)Nc1cccnn1)[C@H]1CCCN2C1 [Example 520] |
| B (EC1.5 1-25 μM) | ≥ 150% | O=C(Nc1cncc(F)c1)N1c2nc(-c3cccc(Cl)c3)ccc2N2CCC1CC2 [Example 521] |
| B (EC1.5 1-25 μM) | ≥ 150% | COc1cc(NC(=O)N2c3nc(-c4cccc(Cl)c4)ccc3N3CCC2CC3)ncn1 [Example 522] |
| A (EC1.5<1 μM) | ≥ 150% | COc1cc(NC(=O)N2c3nc(-c4cccc(Cl)c4)ccc3N3CCC2CC3)nc(OC)n1 [Example 523] |
| B (EC1.5 1-25 μM) | ≥ 150% | Cn1nccc1-c1ccc2c(n1)N(C(=O)Nc1cccnc1)[C@H]1CCN2C1 [Example 524] |
| B (EC1.5 1-25 μM) | ≥ 150% | Cc1n[nH]c(C)c1-c1ccc2c(n1)N(C(=O)Nc1cccnc1)[C@H]1CCN2C1 [Example 525] |
| A (EC1.5<1 μM) | ≥ 150% | O=C(Nc1cccnc1)N1c2nc(-c3cncc(Cl)c3)ccc2N2CC[C@H]1C2 [Example 526] |
| B (EC1.5 1-25 μM) | ≥ 150% | COc1cc(NC(=O)N2c3nc(-c4cccc(N5CCOCC5)c4)ccc3N3CCC[C@H]2C3)ncn1 [Example 528] |

| Tryp AVG EC1.5 (μM) | Emax | Structure (SMILES) |
| --- | --- | --- |
| B (EC1.5 1-25 μM) | ≥ 150% | O=C(Nc1ccncn1)N1c2nc(-c3cccc(N4CCOCC4)c3)ccc2N2CCC[C@H]1C2 [Example 529] |
| A (EC1.5<1 μM) | ≥ 150% | O=C1C=CC2=C(c3ccc(NC(=S)NCc4ccc(NC(=O)N5c6nc(-c7cccc(C(F)(F)F)c7)ccc6N6CC[C@H]5C6)cc4)cc3C(=O)O)C3C=CC(O)=CC3OC2=C1 (stereo partly shown) [Example 530] |
| B (EC1.5 1-25 μM) | ≥ 150% | Cc1c(-c2ccc3c(n2)N(C(=O)Nc2ccccn2)[C@H]2CCN3C2)cnn1C [Example 531] |
| B (EC1.5 1-25 μM) | ≥ 150% | Cc1c(-c2ccc3c(n2)N(C(=O)Nc2cnccn2)[C@H]2CCN3C2)cnn1C [Example 532] |
| B (EC1.5 1-25 μM) | ≥ 150% | O=C(Nc1ccccn1)N1c2nc(-c3cccc(Cl)c3)ccc2N2CCC1CC2 [Example 533] |
| B (EC1.5 1-25 μM) | ≥ 150% | O=C(Nc1ccncn1)N1c2nc(-c3cccc(Cl)c3)ccc2N2CCC1CC2 [Example 534] |
| B (EC1.5 1-25 μM) | ≥ 150% | N#Cc1cncc(-c2ccc3c(n2)N(C(=O)Nc2cncc(F)c2)[C@H]2CCCN3C2)c1 [Example 535] |
| B (EC1.5 1-25 μM) | ≥ 150% | O=C(Nc1ccccn1)N1c2nc(-c3cccc(N4CCOCC4)c3)ccc2N2CCC[C@H]1C2 [Example 536] |
| B (EC1.5 1-25 μM) | ≥ 150% | Cc1nc(NC(=O)N2c3nc(-c4cccc(N5CCOCC5)c4)ccc3N3CCC[C@H]2C3)sc1C [Example 537] |
| A (EC1.5<1 μM) | ≥ 150% | O=C(Nc1cccnc1)N1c2nc(-c3cccc(N4CCOCC4)c3)ccc2N2CCC[C@H]1C2 [Example 538] |
| B (EC1.5 1-25 μM) | ≥ 150% | O=C(Nc1cccnn1)N1c2nc(-c3cccc(N4CCOCC4)c3)ccc2N2CCC[C@H]1C2 [Example 539] |
| A (EC1.5<1 μM) | ≥ 150% | Cc1cc(NC(=O)N2c3nc(-c4cccc(C(F)(F)F)c4)ccc3N3CC[C@H]2C3)cc(Br)n1 [Example 540] |
| A (EC1.5<1 μM) | ≥ 150% | O=C(Nc1ccnc(Br)c1)N1c2nc(-c3cccc(C(F)(F)F)c3)ccc2N2CC[C@H]1C2 [Example 541] |
| A (EC1.5<1 μM) | ≥ 150% | O=C(Nc1cncc(Br)c1)N1c2nc(-c3cccc(C(F)(F)F)c3)ccc2N2CC[C@H]1C2 [Example 542] |
| B (EC1.5 1-25 μM) | ≥ 150% | O=C(Nc1cnccn1)N1c2nc(-c3cccc(Cl)c3)ccc2N2CCC1CC2 [Example 543] |
| B (EC1.5 1-25 μM) | ≥ 150% | O=C(Nc1cccnc1)N1c2nc(-c3cncc(Cl)c3)ccc2N2CCC1CC2 [Example 544] |
| B (EC1.5 1-25 μM) | ≥ 150% | O=C(Nc1cncc(F)c1)N1c2nc(-c3cncc(Cl)c3)ccc2N2CCC1CC2 [Example 545] |
| C (EC1.5>25 μM) | < 150% | O=C(CCCCCNC(=O)c1ccc(-c2c3ccc(=O)cc-3oc3cc(O)ccc23)c(C(=O)O)c1)NCc1ccc(NC(=O)N2c3nc(-c4cccc(C(F)(F)F)c4)ccc3N3CC[C@H]2C3)cc1 [Example 547] |
| B (EC1.5 1-25 μM) | ≥ 150% | CC1(CCC(=O)NCc2ccc(NC(=O)N3c4nc(-c5cccc(C(F)(F)F)c5)ccc4N4CC[C@H]3C4)cc2)N=N1 [Example 548] |
| B (EC1.5 1-25 μM) | ≥ 150% | O=C(Nc1cccnc1)N1c2nc(-c3cnn(-c4ccccc4)c3)ccc2N2CC[C@H]1C2 [Example 549] |
| B (EC1.5 1-25 μM) | ≥ 150% | O=C(Nc1cnccn1)N1c2nc(-c3cncc(Cl)c3)ccc2N2CCC1CC2 [Example 550] |
| B (EC1.5 1-25 μM) | ≥ 150% | O=C(Nc1ccccn1)N1c2nc(-c3cncc(Cl)c3)ccc2N2CCC1CC2 [Example 551] |
| C (EC1.5>25 μM) | < 150% | COc1cc(NC(=O)N2c3nc(-c4cncc(Cl)c4)ccc3N3CCC2CC3)ncn1 [Example 552] |
| B (EC1.5 1-25 μM) | ≥ 150% | COc1cc(NC(=O)N2c3nc(-c4cncc(Cl)c4)ccc3N3CCC2CC3)nc(OC)n1 [Example 553] |
| B (EC1.5 1-25 μM) | ≥ 150% | Cc1nc(NC(=O)N2c3nc(-c4cncc(Cl)c4)ccc3N3CCC2CC3)sc1C [Example 554] |
